In BindingDB's records for doi:10.1021/jm049513x (University of Bonn, 2005):

Test: Percent inhibition of [3H]PSB-11 binding to adenosine A3 receptor at 10 uM

## CCCn1c(=O)c2nc(C3CC(C)(C)N([O])C(C)(C)C3)[nH]c2n(CCC)c1=O
  Ki: 45 nM
